Data set [1] deals with Recombinant soluble human NEP (Homo sapiens, UniProt P08473). Description: Proteolytic stability assay against NEP. The conditions noted are these: NEP 100 ng/mL, compound 10 μM, 37° C., % intact compound remaining.
Data set [2] is described as follows: Plasma stability assay, mouse plasma. The data set is classed as in vitro ADME. Conditions: 37° C., % intact compound remaining after 4 h or 24 h. In outline: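 K2EDTA mouse or human plasma spiked with compound from 0.5 mM DMSO stock, incubated at 37 °C for 0, 4 and 24 h in duplicate. Proteins precipitated with acetonitrile/1% TFA, internal standard added; recovery and carry-over evaluated.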

The target in data set [3] is T1, GIPR (CHO-K1-hGIPR cells) (Homo sapiens, UniProt P48546).
T1 construct: host or cells: CHO-K1
T1 sequence (P48546 22-466): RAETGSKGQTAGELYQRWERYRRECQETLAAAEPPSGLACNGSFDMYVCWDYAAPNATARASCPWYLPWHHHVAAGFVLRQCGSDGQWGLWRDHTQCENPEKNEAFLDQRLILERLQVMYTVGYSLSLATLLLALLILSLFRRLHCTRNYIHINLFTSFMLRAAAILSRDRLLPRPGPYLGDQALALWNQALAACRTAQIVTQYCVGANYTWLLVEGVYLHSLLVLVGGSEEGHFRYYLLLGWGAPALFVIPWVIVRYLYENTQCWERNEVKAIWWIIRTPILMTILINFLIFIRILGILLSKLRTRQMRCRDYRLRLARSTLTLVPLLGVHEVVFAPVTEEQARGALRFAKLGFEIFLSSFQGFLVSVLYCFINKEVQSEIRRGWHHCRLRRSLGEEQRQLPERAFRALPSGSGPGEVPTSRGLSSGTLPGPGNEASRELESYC
Description: FACS binding assay. The conditions noted are these: competition with 20 nM GIP-057, 4° C., 1 hour, read-out: pIC50 Category (converted). In outline:
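Median fluorescence in the APC channel, measured on washed CHO-K1 cells overexpressing human GIPR, was fitted by four-parameter logistic regression against peptide concentration to yield EC50 or IC50 values. Secondary labelling used APC-streptavidin (1 μg/mL, 30 min, ice).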
In general terms: Flow cytometry measures light scatter and fluorescence of single cells or particles in a stream.

Data set [4] in a line: Plasma stability assay, human plasma. Type of data set: in vitro ADME. The conditions noted are these: 37° C., % intact compound remaining after 4 h or 24 h. The method, then:
In order to determine the stability of selected compounds of the invention in human and mouse plasma, a plasma stability assay was carried out. Such plasma stability assay measures degradation of compounds of the present invention in blood plasma. This is an important characteristic of a compound as compounds, with the exception of pro-drugs, which rapidly degrade in plasma, generally show poor in vivo efficacy. […] The stability is sufficient for the diagnostic, therapeutic and theragnostic use of these compounds according to the present invention.
The plasma stability samples were prepared by spiking 50 μL plasma aliquots (all K2EDTA) with 1 μL of a 0.5 mM compound stock solution in DMS0. After vortexing the samples were incubated in a Thermomixer at 37° C. for 0, 4 and 24 hours. After incubation the samples were stored on ice until further treatment. All samples were prepared in duplicates.
A suitable internal standard was added to each sample (1 μL of a 0.5 mM stock solution in DMSO). Protein precipitation was performed by addition of 250 μL of acetonitrile containing 1% trifluoroacetic acid. After incubation at room temperature for 30 min the precipitate was separated by centrifugation and 150 μL of the supernatant was diluted with 150 μL of 1% aqueous formic acid.
Additionally, recovery was determined by spiking a pure plasma sample that only contained the internal standard after treatment with a certain amount of the compound.
Carry-over was evaluated by analysis of a blank sample (20% acetonitrile) after the highest calibration sample.

For data set [5], the target named is T2, human GIPR (HEK-GIPR cells) (Homo sapiens, UniProt P48546).
T2 construct: host or cells: HEK293
T2 sequence (P48546 22-466): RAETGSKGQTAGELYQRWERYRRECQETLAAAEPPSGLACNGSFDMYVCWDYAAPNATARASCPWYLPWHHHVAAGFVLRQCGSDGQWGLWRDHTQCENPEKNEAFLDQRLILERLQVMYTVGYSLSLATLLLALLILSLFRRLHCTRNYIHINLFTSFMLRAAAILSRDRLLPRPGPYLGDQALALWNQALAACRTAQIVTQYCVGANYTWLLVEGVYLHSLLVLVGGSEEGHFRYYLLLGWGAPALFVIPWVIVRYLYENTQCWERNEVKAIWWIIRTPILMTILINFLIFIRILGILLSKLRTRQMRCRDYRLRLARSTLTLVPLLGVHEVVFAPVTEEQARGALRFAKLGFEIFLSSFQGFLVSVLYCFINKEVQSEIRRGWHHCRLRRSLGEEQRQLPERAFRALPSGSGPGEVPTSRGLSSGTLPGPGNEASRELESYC
Description: cAMP assay. The data set is classed as cell-based. Conditions: 37° C., 30 min, cAMP-Glo. Here is the method: In order to determine the inhibitory or stimulatory activity of compounds according to the present invention of GIPR-expressing cells, a cAMP activity assay was established.
HEK-GIPR cells were generated by InSCREENeX GmbH (Germany) using the targeting vector pTAR to insert the minimal CMV promoter upstream of the human GIPR cDNA by recombinase-mediated cassette exchange into the pre-tagged HEK293 cell line.
HEK-GIPR cells were cultured in RPMI-1640 medium (Sigma-Aldrich, #R0883) including 10% fetal calf serum (FCS), 8 mM L-glutamine, 100 U/mL penicillin, 100 μg/mL streptomycin and 1 mg/mL Geneticin. Cells were detached with Accutase (Biolegend, #BLD-423201) and diluted in culture medium to a final concentration of 100,000 cells per mL. 100 μL of the cell suspension were transferred to white poly-L-lysine-coated 96-well plates with optical bottom (Nunc, #165306) and incubated overnight in a humidified atmosphere containing 5% CO2 at 37° C.
For cAMP detection, the cAMP-Glo™ Assay (Promega, #V1501) was employed. […] After 10 min of incubation, luminescence was read using a SpectraMax M5 Plate Reader (Molecular Devices).
Relative luminescence values (RLU) were plotted against peptide concentration and four parameter logistic (4PL) curve fitting and calculations of EC50/pEC50 and IC50/pIC50, respectively, were performed using ActivityBase software.
(In general: Cyclic AMP is a second messenger, typically raised through Gs and lowered through Gi signalling.)

The target of data set [6] is biotinylated extracellular domain of the human GIP receptor (bioGIPR) (human) (UniProt P48546). Description: SPR single cycle kinetics, bioGIPR captured on chip; category D: t1/2 <2.0 min.
Data set [7] shares this target. Description: SPR single cycle kinetics, bioGIPR captured on chip; category B: pKD 8.1-9.0.
The target of data set [8] is human Gastric Inhibitory Peptide Receptor (human) (UniProt P48546). Description: FACS competition with GIP-057 on CHO-K1-hGIPR cells; pIC50 category B: 7.1-8.0.

*1 amine or outer side, *2 acyl side, *3 side chain or, on linkers, in order; H or OH if unused. Where a SMILES comes first, the peptide text is derived from it. Bridges are numbered along the chain shown (N, C = ends). [ ]: non-standard residue; d: D form. The star is where a group is joined. X5 = NC(=O)[C@H](CCCCNC(=O)CN1CCN(CC(=O)O)CCN(CC(=O)O)CCN(CC(=O)O)CC1)NC(=O)CCC(=O)NCCCOCCOCCOCCCN*; X3 = O=C(O)CN1CCN(CC(=O)O)CCN(CC(=O)NCCCOCCOCCOCCCN*)CCN(CC(=O)O)CC1; Pro(trans-4-NH2) = O=C([C@@H]1C[C@@H](N[*:3])CN1[*:1])[*:2]; DOTA = O=C(O)CN1CCN(CC(=O)O)CCN(CC(=O)*)CCN(CC(=O)O)CC1; 2Lut = 2,6-lutidylidene bridge between two thiols; Trp(5-Cl) = N[C@@H](Cc1c[nH]c2ccc(Cl)cc12)C(=O)O; APAc = 4-amino-1-carboxymethylpiperidine; mXylylene = c1cc(C[*:1])cc(C[*:2])c1; Glutaryl = O=C(CCCC(=O)[*:2])[*:1]; AGLU = 1-amino-1-deoxy-D-glucitol; Suc = O=C(CCC(=O)[*:2])[*:1]; glu(AGLU) = not defined here; hSer = N[C@@H](CCO)C(=O)O; Api = NC1(C(=O)O)CCNCC1 Some results are limits rather than exact numbers.

Chain of Recombinant soluble human NEP (P08473 52-750 limits assumed): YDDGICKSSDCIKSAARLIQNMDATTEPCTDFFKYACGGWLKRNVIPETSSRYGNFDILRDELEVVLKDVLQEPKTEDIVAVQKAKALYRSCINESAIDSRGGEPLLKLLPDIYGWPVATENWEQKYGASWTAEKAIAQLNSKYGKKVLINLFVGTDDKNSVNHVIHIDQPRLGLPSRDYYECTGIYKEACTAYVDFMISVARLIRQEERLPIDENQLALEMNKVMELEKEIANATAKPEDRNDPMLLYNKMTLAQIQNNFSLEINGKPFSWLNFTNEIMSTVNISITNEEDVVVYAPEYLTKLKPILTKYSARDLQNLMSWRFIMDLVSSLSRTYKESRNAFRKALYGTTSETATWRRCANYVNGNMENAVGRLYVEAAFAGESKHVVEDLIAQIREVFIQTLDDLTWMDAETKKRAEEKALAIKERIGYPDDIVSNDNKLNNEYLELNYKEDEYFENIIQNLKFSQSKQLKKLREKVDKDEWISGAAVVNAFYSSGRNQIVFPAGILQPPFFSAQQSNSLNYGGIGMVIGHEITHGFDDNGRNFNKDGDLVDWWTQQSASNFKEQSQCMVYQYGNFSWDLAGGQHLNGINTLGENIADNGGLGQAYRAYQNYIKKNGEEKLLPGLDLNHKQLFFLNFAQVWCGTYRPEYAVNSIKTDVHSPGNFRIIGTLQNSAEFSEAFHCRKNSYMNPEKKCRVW

For `CC[C@H](C)[C@@H]1NC(=O)[C@H](CC(C)C)NC(=O)[C@H](C)NC(=O)[C@@H](NC(=O)[C@H](CC(C)C)NC(=O)[C@H](CCC(=O)O)NC(=O)[C@@H]2CCCN2C(=O)[C@H](Cc2c[nH]c3ccccc23)NC(=O)[C@H](Cc2c[nH]c3ccccc23)NC(=O)[C@H](CC(=O)O)NC(=O)[C@H](Cc2ccc(O)cc2)NC(=O)CCC(=O)NCCCOCCOCCOCCCNC(=O)CN2CCN(CC(=O)O)CCN(CC(=O)O)CCN(CC(=O)O)CC2)CSCc2cccc(c2)CSC[C@@H](C(N)=O)NC1=O` [GIP-126, DOTA-Ttds-Tyr-Asp-Trp-Trp-Pro-Glu-Leu-[Cys(3MeBn)-Ala-Leu-Ile-Cys]-NH2] ({X3-Suc}-YDWWPELCALIC-NH2; linker 8-12 via mXylylene), the NEP stability category result in data set [1] is “A (>80% intact after 24 hours)”. Further, in data set [2], the “Mouse plasma stability category” value was “B (>80% intact after 4 hours)”. The IC50 in data set [3] is 10 to 79.4 nM.
For `CC[C@H](C)[C@@H]1NC(=O)[C@H](CC(C)C)NC(=O)[C@H](C)NC(=O)[C@@H](NC(=O)[C@H](CC(C)C)NC(=O)[C@H](CCC(=O)O)NC(=O)[C@@H]2CCCN2C(=O)[C@H](Cc2c[nH]c3ccccc23)NC(=O)[C@H](Cc2c[nH]c3ccccc23)NC(=O)[C@H](CC(=O)O)NC(=O)[C@H](Cc2ccc(O)cc2)NC(C)=O)CSCc2cccc(c2)CSC[C@@H](C(=O)NCCCOCCOCCOCCCNC(=O)CCC(=O)N[C@@H](CCCCNC(=O)CN2CCN(CC(=O)O)CCN(CC(=O)O)CCN(CC(=O)O)CC2)C(N)=O)NC1=O` [GIP-127, Ac-Tyr-Asp-Trp-Trp-Pro-Glu-Leu-[Cys(3MeBn)-Ala-Leu-Ile-Cys]-Ttds-Lys(DOTA)-NH2] (Ac-YDWWPELCALIC-X5; linker 8-12 via mXylylene) the same measures were “A (>80% intact after 24 hours)”, “B (>80% intact after 4 hours)” and 10 to 79.4 nM.
As for `CC[C@H](C)[C@@H]1NC(=O)[C@H](CC(C)C)NC(=O)[C@H](C)NC(=O)[C@@H](NC(=O)[C@H](CC(C)C)NC(=O)[C@H](CCC(=O)O)NC(=O)[C@@H]2CCCN2C(=O)[C@H](Cc2c[nH]c3ccccc23)NC(=O)[C@H](Cc2c[nH]c3ccccc23)NC(=O)[C@H](CC(=O)O)NC(C)=O)CSCc2cccc(c2)CSC[C@@H](C(N)=O)NC1=O` [GIP-244, Ac-Asp-Trp-Trp-Pro-Glu-Leu-[Cys(3MeBn)-Ala-Leu-Ile-Cys]-NH2] (Ac-DWWPELCALIC-NH2; linker 7-11 via mXylylene), the NEP stability category result in data set [1] is “A (>80% intact after 24 hours)”. Moreover, in data set [4], the “Human plasma stability category” value is reported as “B (>80% intact after 4 hours)”. In data set [2], the “Mouse plasma stability category” value is on record as “B (>80% intact after 4 hours)”. Further, the IC50 in data set [3] was 10 to 79.4 nM.
As to GIP(1-30) C-ter. ^natInDOTA, the “Mean pEC50 ± SD” value in data set [5] is listed as 12.0 ± 0.1.
Take {AGLU-Glutaryl-APAc}-SW[Trp(5-Cl)][Pro(trans-4-NH2)][hSer][dL]C[Api](DOTA)LIC-{APAc-glu(AGLU)-NH2} (linker 7-11 via 2Lut; reading uncertain) [AGLU-Glutar-APAc-Ser-Trp-5Clw-Tap-Hse-leu-[Cys(2Lut)-Apc(DOTA)-Leu-Ile-Cys]-APAc-glu(AGLU)-NH2]: the t1/2 in data set [6] was below 2 min. Besides, the pKD in data set [7] lay within 8.1 to 9 pkd. Besides, the pIC50 in data set [8] lay in the range of 7.1 to 8 pic50.

The values above are taken from patent US20250296971A1, “GASTRIC INHIBITORY PEPTIDE RECEPTOR LIGANDS” (priority 2021, published 2025).
